According to PMC6273765, “Synthesis and Biological Evaluation of Novel Aromatic Imide-Polyamine Conjugates” (Molecules, 2016):
Where a name gives a salt, the structure may show the parent alone.

Experiments:
HCT-116 cells = assay: MTT cytotoxicity, HCT-116; type: cell-based, human; conditions: mean of three experiments
HepG2 cells [1] = assay: MTT cytotoxicity, HepG2; type: cell-based, human; conditions: mean of three experiments
K562 cells = assay: MTT cytotoxicity, K562; type: cell-based, human; conditions: mean of three experiments
QSG-7701 cells = assay: MTT cytotoxicity, QSG-7701 normal hepatocyte; type: cell-based; conditions: normal hepatocyte cell line
MDA-MB-231 cells = assay: MTT cytotoxicity, MDA-MB-231; type: cell-based; conditions: Homo sapiens, 48 h, mean of three experiments
[2] = system: H22 mouse hepatocellular carcinoma; assay: Subcutaneous H22 solid tumor growth inhibition; type: in vivo, Kunming mice; conditions: 11e 1 mg/kg, amonafide 5 mg/kg; for Inhibition Rate (tumor weight) / Tumor Weight: caudal vein, 7 consecutive days; for Inhibition Rate (tumor weight): vs normal saline; for Tumor Weight: control 2.17 ± 0.22 g; for No. Dead: solid tumor model
Text: However, few in vivo studies provided limited messages for rational design of the conjugates in comparison to the plentiful in vitro data. Indeed, there are significant discrepancies between in vitro and in vivo experiments in many cases. In vivo trials, based on preliminary in vitro screens, provide more valuable messages for further drug development. To further evaluate the antitumor activity of 11e in vivo, we chose three H22 (mice hepatoma cell line) tumor transplant models: solid tumor (tumor growth inhibition evaluation), ascites tumor (live time evaluation), and pulmonary metastasis tumor (tumor metastasis evaluation).
All animal care and experimentation conformed to the Guide for the Care and Use of Laboratory Animals published by Henan University (HUSOM2016-162). For solid tumor development, 30 male Kunming mice (Laboratory Animal Center of Henan, Zhengzhou, China) aged 5 weeks (weighing 18–22 g) were injected subcutaneously with 2 × 10^6 H22 cells. […] On day 16, the mice were killed by cervical vertebra dislocation, and solid tumors were removed and weighed. The inhibitory rate was calculated as follows: inhibitory rate (%) = [(A − B)/A] × 100, where A was the mean tumor weight of the control group and B was that of the drug treated or positive group.

[3] = system: H22 cells lung metastasis; assay: H22 lung metastasis model; type: in vivo, Kunming mice; conditions: 11e 1 mg/kg; for Inhibition Rate (lung metastasis) / Metastatic Focus (No.): amonafide 5 mg/kg i.v., 7 consecutive days; for Inhibition Rate (lung metastasis): vs normal saline; for Metastatic Focus (No.): control 110.04 ± 15.38; for No. Dead: amonafide 5 mg/kg, lung metastasis model
Text: Metastasis is the process by which tumors spread from the primary organ in which they arise to other sites in the body. In most cases, tumors that stay confined to one organ will not be fatal, tumors that have spread to other organs have a greater potential for causing harm. To test whether 11e was effective against an established lung metastasis, we injected H22 cells intravenously into 24 Kunming mice (5 × 10^6 cells each mouse). To ensure that all mice bore actively growing lung tumors before the drug treatment, pulmonary cancer was allowed to develop for 10 days.
H22 cells (5 × 10^6 cells per mouse) for Kunming mice were injected intravenous (i.v.) through the tail vein for tumor passive metastasis. To ensure all mice bore actively growing lung tumors before the drug treatment, pulmonary metastasis was allowed to develop for 10 days. […] On day 18, mice were killed by cervical vertebra dislocation, and lungs were removed and weighed, and then fixed in Bouin’s fluid. After the lungs were fixed, lung metastases nodus was numbered.

H22 cells = assay: Survival time in mice bearing H22 cells (ascites); type: in vivo, Kunming mice; conditions: 11e 1 mg/kg, amonafide 5 mg/kg i.v.; for median survival time (MST): 7 consecutive days, control 12.75 ± 2.5 days
Method: Impacts of 11e on survival time in H22-bearing mice were evaluated by measuring the extension of the lifespan. The median survival time (MST) in control mice was (12.75 ± 2.5) days.
For calculation of the survival time, 30 male Kunming mice were inoculated via intraperitoneal (i.p.) injection with 1 × 10^6 H22 cells/mouse on day 0 and were randomly divided into three groups. […] The median survival time (MST) for each group was observed, and the antitumor activity of the drug was evaluated by measuring the increase of the lifespan. The extended lifespan rate was calculated as follows: extend rate (%) = (MST treated group/MST control group) × 100.

[4] = Systemic toxicity (body weight, organ index); conditions: 11e 1 mg/kg, amonafide 5 mg/kg i.v.
Method: However, there are few reports about the systemic toxicology of naphthalimide-polyamine conjugates to support the above hypothesis. […] At the same time, the body weight was monitored to detect the dose-limited toxicity. On day 8, these mice were killed by cervical vertebra, and the organs and tissues, including samples of heart, liver, lung, kidney, spleen and thymus, were taken for the inspection of systemic toxicity.
Mice (8 per group) received 11e (1 mg/kg) and amonfide (5 mg/kg, i.v.) for 7 consecutive days and then were sacrificed. Heart, liver, kidney, lung and spleen were removed and weighed. The organ index was investigated for systemic toxicity evaluation: organ index (%) = (organ weight/body weight) × 100.

HepG2 cells [5] = assay: Apoptosis by AO/EB staining (HCS); type: cell-based, human; conditions: HepG2, 3, 6, 12 μM, 48 h
Text: To appraise if novel naphthalimide-polyamine conjugates induce cell apoptosis, morphological study was applied after HepG2 cells were stained with AO/EB. […] To furnish more credible information about the apoptosis of HepG2 cells induced by compound 11e, we used the high content screening (HCS) technique to detect related apoptosis indicators. Mitochondria are vital cell organelles in the process of transmitting apoptosis signals, whereas the mitochondrial membrane potential (MMP) is a critical parameter related to mitochondrial function in cells. As a MMP specific cationic fluorescent dye, Rh123 is used to measure the change of MMP, which accumulates in healthy mitochondria with intact membrane potential and is absent in the depolarized mitochondria. […] Thus, the lysosomal mass/pH (Lys/pH) variation was detected by a basic fluorescent probe Lyso-Tracker Red which selectively accumulates in acidic lysosomes during cytotoxicity occurs.
HepG2 cells were seeded in 96 well plates (6 × 10^3 cells/well), cultured for 24 h to obtain a confluent monolayer and then treated with various concentrations of tested compounds for 48 h. […] Images were obtained on the High Content Screening (HCS, ArrayScan, Thermo Scientific) reader using the Target Activation BioApplication software (Thermo Scientific).

HepG2 cells [6] = assay: Mitochondrial membrane potential, Rh123 (HCS); type: cell-based, human; conditions: HepG2, 3, 6, 12 μM, 48 h
Text: (§1) To appraise if novel naphthalimide-polyamine conjugates induce cell apoptosis, morphological study was applied after HepG2 cells were stained with AO/EB. […] To furnish more credible information about the apoptosis of HepG2 cells induced by compound 11e, we used the high content screening (HCS) technique to detect related apoptosis indicators. Mitochondria are vital cell organelles in the process of transmitting apoptosis signals, whereas the mitochondrial membrane potential (MMP) is a critical parameter related to mitochondrial function in cells. As a MMP specific cationic fluorescent dye, Rh123 is used to measure the change of MMP, which accumulates in healthy mitochondria with intact membrane potential and is absent in the depolarized mitochondria. Lysosomes, as cellular targets in cancer therapy, participate in various cell death profiles such as apoptosis and senescence. Thus, the lysosomal mass/pH (Lys/pH) variation was detected by a basic fluorescent probe Lyso-Tracker Red which selectively accumulates in acidic lysosomes during cytotoxicity occurs.
(§2) HepG2 cells were seeded in 96 well plates (6 × 10^3 cells/well), cultured for 24 h to obtain a confluent monolayer, and then treated with various concentrations of tested compounds for 48 h. […] Images were acquired on the ArrayScan HCS reader using the Target Activation BioApplication software.

HepG2 cells [7] = assay: Lysosomal mass/pH, Lyso-Tracker Red (HCS); type: cell-based, human; conditions: HepG2, 3, 6, 12 μM, 48 h
Text: as §1, §2

HepG2 cells [8] = assay: ROS generation, DCFH-DA (HCS); type: cell-based, human; conditions: HepG2, 3, 6, 12 μM, 48 h
Method: It is known that polyamine conjugates may produce reactive oxygen species (ROS). The elevated ROS could bring corresponding influences on MMP loss and LYS/pH destabilization, which generally activates the cell death. Therefore, the ROS generation was detected by the DCFH-DA (2′,7′-dichlorodihydrofluorescein diacetate) experiment.
HepG2 cells were seeded in 96 well plates (6 × 10^3 cells/well), cultured for 24 h to obtain a confluent monolayer, and then treated with various concentrations of tested compounds for 48 h. Cells were incubated with Rh123 (0.25 nM), or DCFH-DA (10 μM), or Lyso-Tracker Red (50 nM ) in the dark at 37 °C for 30 min. for the measurement of mitochondrial membrane potential (MMP), or reactive oxygen species (ROS) or lysosomal mass/pH staining, respectively. After being washed with PBS to remove excess dyes, cells were further stained with the nuclear dye Hoechst 33,342 (10 μM) in the dark at 37 °C for 20 min. Images were acquired on the ArrayScan HCS reader using the Target Activation BioApplication software.

| Compound | IC50 (HCT-116 cells; Homo sapiens, HCT-116, 48 h) [µM] | IC50 (HepG2 cells [1]; Homo sapiens, HepG2, 48 h) [µM] | IC50 (K562 cells; Homo sapiens, K562, 48 h) [µM] | IC50 (QSG-7701 cells; QSG7701, 48 h) [µM] | IC50 (MDA-MB-231 cells) [µM] | also measured |
| --- | --- | --- | --- | --- | --- | --- |
| NCCCNCCCNCCCN1C(=O)c2ccc(-c3ccccc3)cc2C1=O [17b, 5-Phenyl-2-{3-[3-(3-aminopropylamino)-propylamino]propyl}isoindoline-1,3-dione trihydrochloride] | > 50 | > 50 | 28.2 | > 50 |  |  |
| CN(C)CCN1C(=O)c2cccc3cc(N)cc(c23)C1=O [Amonafide, amonafide, reference compound] | 15.4 | 6.57 | 6.31 | 55.5 | 7.98 | Inhibition Rate (tumor weight) [2]: 43.79%; Tumor Weight [2]: 1.22 ± 0.13 g; No. Dead [2]: 0/9; Inhibition Rate (lung metastasis) [3]: 40.70%; Inhibition Rate (lung metastasis) ([3]; listed as amonafide): 40.7%; Metastatic Focus (No.) [3]: 65.25 ± 13.82; No. Dead [3]: 0/8; life span increase vs control group (H22 cells): 1.53 fold; median survival time (MST) (H22 cells): 19.5 ± 3.6 days; liver and spleen index ([4]; 7 days, compared to controls): obviously decreased; body weight change ([4]; tumor-bearing mice, 7 consecutive days): some degree of weight loss |
| Cl.Cl.Cl.Cl.NCCCNCCCCNCCCNCC(=O)NCCCN1C(=O)c2cccc3cccc(c23)C1=O [11e, 2-(3-(4-(3-Aminopropylamino)butylamino)propylamino)-N-(3-(1,3-dioxo-1H-benzo[de]isoquinolin-2(3H)-yl)propyl)acetamide tetrahydrochloride] | 5.12 | 6.33 | 2.86 | 53.9 | 12 | apoptosis induction (AO/EB) (HepG2 cells [5]): obvious apoptosis; green fluorescence of Rh123 (MMP) (HepG2 cells [6]): significantly decreased in a dose-dependent manner; Lyso-Tracker Red fluorescence (lysosomal mass/pH) (HepG2 cells [7]): remarkable accruement of red fluorescence; ROS generation (DCFH-DA) (HepG2 cells [8]): apparently increased ROS; Inhibition Rate (tumor weight) [2]: 70.92%; Tumor Weight [2]: 0.63 ± 0.21 g; No. Dead [2]: 0/9; Metastatic Focus (No.) [3]: 40.25 ± 8.15; No. Dead [3]: 0/8; life span increase vs control group (H22 cells): 2.41 fold; median survival time (MST) (H22 cells): 30.75 ± 4.4 days |
| NCCCNCCCCNCCCN1C(=O)c2ccc(-c3ccccc3)cc2C1=O [17c, 5-Phenyl-2-{3-[4-(3-aminopropylamino)-amino]propyl}isoindoline-1,3-dione trihydrochloride] | > 50 | > 50 | > 50 | > 50 |  |  |
| NCCCCNCCCCNCCCCN1C(=O)c2ccc(-c3ccccc3)cc2C1=O [17d, 5-Phenyl-2-{4-[4-(4-aminobutylamino)-butylamino]butyl}isoindoline-1,3-dione trihydrochloride] | > 50 | > 50 | > 50 | > 50 |  |  |
| 2-{3-[4-(3-Aminopropylamino)butylamino]butyl}-6-acetyl-1H-benz[de]isoquinoline-1,3(2H)-dione trihydrochloride [5e] |  |  |  |  |  | IC50 (HCT-116 cells; 48 h): 16.9 µM; IC50 (HepG2 cells [1]; 48 h): 22.1 µM; IC50 (K562 cells; 48 h): 12.2 µM; IC50 (QSG-7701 cells; 48 h): 27.7 µM |
| NCCCNCC(=O)NCCCN1C(=O)c2cccc3cccc(c23)C1=O [11a, 2-(3-Aminopropylamino)-N-(3-(1,3-dioxo-1H-benzo[de]isoquinolin-2(3H)-yl)propyl)acetamide dihydrochloride] | 39.9 | 53.5 | 33.2 | 39.2 | 32.4 |  |
| CC(=O)c1ccc2c3c(cccc13)C(=O)N(CCCCNCCCCNCCCCN)C2=O [5f, 2-{4-[4-(4-Aminobutylamino)butylamino]butyl}-6-acetyl-1H-benz[de]isoquinoline-1,3(2H)-dione trihydrochloride] | 19.6 | 30.7 | 18.8 | 21.2 |  |  |
| CC(=O)c1ccc2c3c(cccc13)C(=O)N(CCCCNCCCCN)C2=O [5d, 2-[(2-Dimethylamino)ethyl-[4-(4-aminobutylamino)butyl]-6-acetyl-1H-benz[de]isoquinoline-1,3(2H)-dione dihydrochloride] | 22.9 | 23.9 | 31.1 | 23.2 |  |  |
| NCCCCNCCCCNCCCCNCC(=O)NCCCN1C(=O)c2cccc3cccc(c23)C1=O [11f, 2-(4-(4-(4-Aminobutylamino)butylamino)butylamino)-N-(3-(1,3-dioxo-1H-benzo[de]isoquinolin-2(3H)-yl)propyl)acetamide tetrahydrochloride] | > 50 | > 50 | 26.2 | 50.6 | 57.1 |  |
| NCCCNCCCNCC(=O)NCCCN1C(=O)c2cccc3cccc(c23)C1=O [11b, 2-(3-(3-Aminopropylamino)propylamino)-N-(3-(1,3-dioxo-1H-benzo[de]isoquinolin-2(3H)-yl)propyl)acetamide trihydrochloride] | > 50 | > 50 | 28 | 42.9 | 16.8 |  |
